{"source": "patent US20230117947A1", "about": "“Seed Treatment Methods and Compositions” (Novozymes BIOAG A/S, priority 2011, published 2023)", "assay_type_in_all_cases": "in vivo", "key": {"[1]": {"tested_on": "soybean seed (Stine 52118)", "assay": "Field trial (Example 2): grain yield from treated soybean seed, Whitewater, Wis.", "conditions": "for GRAIN YIELD @ 13%: 4.8 fl oz/cwt, 13% seed moisture", "experimental": "A soybean trial was conducted to evaluate embodiments of the present invention on grain yield when applied on soybean seed. The field trial site was located near Whitewater, Wis. and characterized by Milford silty clay loam soil. […] The plant signal molecules used in the trial were same as in Example 1. The soybean seed used in the study was Stine 52118. The plant signal molecules were sprayed onto seeds with/without dilution at a rate of 4.8 fl oz/cwt. The study was conducted in a randomized complete block design, with a plot size of 10 feet by 50 feet (0.011 acres), with 7.5-inch row spacing. Four replications were conducted. Seed were treated with the plant signal molecules 4.5 or 5 months prior to planting and just prior to planting, and were planted at a depth of 1 inch and at a seedling rate of 225,000 seeds per acre using a John Deere 750 NT grain drill. The pesticides Extreme® and AMPS® were both applied 10 days prior to planting (pre-emergence) at rates of 3.0 pt and 2.5 lb, respectively. Assure II®, Roundup WeatherMax® and AMPS® were all applied 45-days post-planting (post-emergent), at rates of 6.0 oz, 21 oz and 2.5 lb, respectively. Plants were harvested 4 months and 21 days after planting. The Control seed was treated with an amount (wt) of water, corresponding to the amount (wt) of the experimental signal molecule composition (signal molecule+carrier). The Control seed was stored under the same conditions as the experimental seed prior to planting and planted at the same time as the experimental seed in the same soil."}, "[2]": {"tested_on": "Soybean seeds", "assay": "Greenhouse test (Example 3): root length and root volume of seedlings from stored treated seed (Winrhizo scanner)", "conditions": "for % increase in root length / % increase in root vol.: versus Control; for Root Vol. / Root length: 10^−7M, stored at 15° C., harvested after 10 days", "experimental": "Soybean seeds treated with 10^−7M pure LCO-V (C18:1, MeFuc) and stored at 15° C. Treated seeds and non-treated seeds (control) were planted 1 and 12 months after treatment in greenhouse pots containing sand:perlite (1:1 mixture). Seedlings were grown for 10 days after seed plantings then seedlings were harvested, their roots cleaned and measured on the Winrhizo® scanner. The Control seed was treated with an amount (wt) of water, corresponding to the amount (wt) of the experimental signal molecule composition (signal molecule+carrier). The Control seed was stored under the same conditions as the experimental seed prior to planting and planted at the same time as the experimental seed in the same soil."}, "[3]": {"tested_on": "soybean seed (Stine S2118)", "assay": "Field trial (Example 1): grain yield from treated soybean seed, Whitewater, Wis.", "conditions": "for GRAIN YIELD @ 13%: 4.8 fl oz/cwt, 13% seed moisture", "experimental": "A field trial was conducted to evaluate embodiments of the present invention on grain yield when applied on soybean seed. The field trial site was located near Whitewater, Wis. and characterized by Milford silty clay loam soil.\nThe plant signal molecules used in the trial were Optimize®, a non-commercial grade of Optimize® (NI-50S-1), pure LCO-V (C18:1, MeFuc)(NI-50GREN-1) and a non-commercial grade of LCO-V (C18:1, MeFuc)(NI-50S-2CF). The soybean seed used in the study was Stine S2118. The plant signal molecules were sprayed onto seeds with/without dilution at a rate of 4.8 fl oz/cwt.\nThe study was conducted in a randomized complete block design, with a plot size of 10 feet by 50 feet (0.011 acres), with 7.5-inch row spacing. Four replications were conducted. Seed were treated with the plant signal molecules 4.5 or 5 months prior to planting and just prior to planting, and were planted at a depth of 1 inch and at a seedling rate of 225,000 seeds per acre using a John Deere 750 NT grain drill. The pesticides Extreme® and AMPS® were both applied 11 days prior to planting (pre-emergence) at rates of 3.0 pt and 2.5 lb, respectively. Assure II®, Roundup WeatherMax® and AMPS® were all applied 46-days post-planting (post-emergent), at rates of 6.0 oz, 21 oz and 2.5 lb, respectively. Plants were harvested 4 months and 20 days after planting.\nThe Control seed was treated with an amount (wt) of water, corresponding to the amount (wt) of the experimental signal molecule composition (signal molecule+carrier). The Control seed was stored under the same conditions as the experimental seed prior to planting and planted at the same time as the experimental seed in the same soil."}, "[4]": {"conditions": "5 months pre-planting (Group 5) versus at planting (Group 4)"}, "[5]": {"conditions": "seed treated 5 months prior to planting"}, "[6]": {"conditions": "planted 1 month after treatment"}}, "note": "Marks after values point to notes of the source that are not given here."}
{"substance": "LCO-V (C18:1, MeFuc) [NI-50GREN-1]", "values": [{"measurement": "decrease in soybean yield", "setting": "[1]; [4]", "value": 1.8, "unit": "bushels/acre"}, {"measurement": "GRAIN YIELD @ 13%", "setting": "[1]; [5]", "value": 64.0, "unit": "bushels/acre"}, {"measurement": "GRAIN YIELD @ 13%", "setting": "[1]; seed treated at planting", "value": 65.8, "unit": "bushels/acre"}, {"measurement": "% increase in root length", "setting": "[2]; 1 month after treatment", "value": 5.46, "unit": "%"}, {"measurement": "% increase in root vol.", "setting": "[2]; 1 month after treatment", "value": 2.86, "unit": "%"}, {"measurement": "% increase in root length", "setting": "[2]; 1 yr after treatment", "value": 37.92, "unit": "%"}, {"measurement": "% increase in root vol.", "setting": "[2]; 1 yr after treatment", "value": 34, "unit": "%"}, {"measurement": "Root Vol.", "setting": "[2]; [6]", "value": 0.468, "unit": "cm^3"}, {"measurement": "Root length", "setting": "[2]; [6]", "value": "135* cm"}, {"measurement": "Root Vol.", "setting": "[2]; planted 1 yr after treatment", "value": "0.540* cm^3"}, {"measurement": "Root length", "setting": "[2]; planted 1 yr after treatment", "value": "159.3* cm"}, {"measurement": "increase in soybean yield", "setting": "[3]; [4]", "value": 8.3, "unit": "bushels/acre"}, {"measurement": "GRAIN YIELD @ 13%", "setting": "[3]; [5]", "value": 70.5, "unit": "bushels/acre"}, {"measurement": "GRAIN YIELD @ 13%", "setting": "[3]; seed treated at planting", "value": 62.2, "unit": "bushels/acre"}]}
